Experimental data published in patent publication US6372777B1, “Cyclic AMP-specific phosphodiesterase inhibitors” (ICOS Corporation, priority 1999, dated 2002).
pEC50, pIC50: −log10 of the molar value.

Experiments:
serum TNFα = test: Combined mouse endotoxin-stimulated TNFα release assay (serum TNFα); format: in vivo, female Balb/c mice; conditions: LPS mouse model
Protocol: The purpose of this study was to determine the efficacy of PDE4 inhibitors in vivo in an LPS mouse model together with a determination with respect to central nervous system (CNS) side-effects manifested by a decrease in spontaneous mobility. The test animals were female Balb/c mice, having an average weight of about 20 g. The PDE4 inhibitors, formulated in 30% Cremophor® EL, were administered via intraperitoneal (i.p.) injections at doses of 0.1, 1.0, 10.0, and 100 mg/kg. Individual dose volumes (about […]) were adjusted based on the body weights measured. One hour later, 5 mg/kg LPS in a final volume of 200 μL was injected via the tail vein to each animal. Ninety minutes following the LPS treatment, the animals were bled and serum samples were collected before being stored at −70° C. until assayed. For efficacy determination, the serum samples were diluted two-fold and TNFα levels were determined using the CYTOSCREEN® Immunoassay Kit (Biosource International) The data were averaged between triplicate sample subjects for each of the tested compounds.

spontaneous mobility = test: Locomotor activity / sedative side-effect visual scoring; format: in vivo, female Balb/c mice; design: key: Vehicle control animals were rated a single “+”; animals that were effectively immobilized and stretched out on the bottom of the cage with little detectable movement were rated as “++++.”; conditions: 10 mg/kg i.p., mice
Protocol: The purpose of this study was to determine the efficacy of PDE4 inhibitors in vivo in an LPS mouse model together with a determination with respect to central nervous system (CNS) side-effects manifested by a decrease in spontaneous mobility.
The test animals were female Balb/c mice, having an average weight of about 20 g. The PDE4 inhibitors, formulated in 30% Cremophor® EL, were administered via intraperitoneal (i.p.) injections at doses of 0.1, 1.0, 10.0, and 100 mg/kg. Individual dose volumes (about […]) were adjusted based on the body weights measured. One hour later, 5 mg/kg LPS in a final volume of 200 μL was injected via the tail vein to each animal. Ninety minutes following the LPS treatment, the animals were bled and serum samples were collected before being stored at −70° C. until assayed.
For side-effect profiling, a subjective visual scoring system was utilized at 5 min and 20min after administration of PDE4 inhibitors. […] In this instance, the subjects could be monitored continuously over pre-set intervals.
Movement of the X-Y plane, or rearing up on the hind legs, was quantified by counting the number of “light-beam” crosses per unit of time. […] The quantitative scoring correlated well with the subjective measurements described above.

human recombinant PDE4 = target: T1, human recombinant PDE4 (Homo sapiens, UniProt Q07343); test: Inhibition of human recombinant PDE4 (IC50); format: biochemical
T1 construct: made in house; host or cells: Saccharomyces cerevisiae BJ2-54 (strain YI23 harboring HDUN2.32, if PDE4B)

[1] = system: human peripheral blood lymphocytes; test: Lipopolysaccharide-stimulated TNFα release from human peripheral blood lymphocytes; format: cell-based; conditions: for pEC50: Homo sapiens, Lymphocyte, LPS-stimulated TNFα release, read-out: PBL/TNFα EC50
Protocol: The compounds of structural formulae (I) and (II) also were tested for an ability to reduce TNFα secretion in human peripheral blood lymphocytes. The ability to reduce TNFα secretion is related to the EC50 values (i.e., the effective concentration of the compound capable of inhibiting 50% of the total TNFα). To assess the ability of a compound to reduce TNFα secretion in human peripheral blood lymphocytes (PBL), the following tests were performed. […] Heparinized blood (approximately 30 mL) drawn from human volunteers was mixed 1:1 with Dulbecco's modified phosphate-buffered saline. This mixture was mixed 1:1 with HISTOPAQUE and centrifuged at 1,500 rpm at room temperature without braking in the swinging bucket of a Beckman model TJ6 centrifuge. Erythrocytes were centrifuged to the bottom of the tubes, and serum remained at the surface of the tubes. A layer containing lymphocytes sedimented between the serum and HISTOPAQUE® layers, and was removed by aspiration to a fresh tube. The cells were quantified and adjusted to 3×10^6 cells/mL and a 100 μL aliquot is placed into the wells of a 96 well plate. Test compounds and RPMI media (Gibco/BRL Life Sciences) are added to each of the wells 15 minutes prior to addition of bacterial LPS ([…]). The mixture was allowed to incubate for 20 hours at 37° C. in a humidified chamber. The cells then were separated by centrifuging at 800 rpm for 5 minutes at room temperature. An aliquot of 80 µL of supernatant was transferred to a new plate or determination of TNFα concentration. TNFα protein in the cell supernatant fluids was measured using a commercially available enzyme-linked immunosorbent assay (ELISA) (CYTOSCREEN® Immunoassay Kit from Biosource International). The cell-based assay provided the following results for various compounds of the present invention. The EC50 values (i.e., effective concentration of the compound capable of inhibiting 50% of the total TNFα ) illustrate the ability of the present compounds to inhibit LPS-stimulated TNFα release from human PBL.

recombinant human PDE4 = conditions: reported value; read-out: IC50 with respect to recombinant human PDE4; cited from earlier work
human recombinant PDE4B = target: T2, human recombinant PDE4B (Homo sapiens, UniProt Q07343); test: PDE inhibition, PDE4B; format: biochemical
T2 construct: made in house; host or cells: Saccharomyces cerevisiae, strain YI23 harboring HDUN2.32

PDE1A = target: T3, PDE1A (Homo sapiens, UniProt P54750); test: PDE inhibition, PDE1A; format: biochemical
T3 construct: contained the complete open reading frame of PDE1A3; made in house; host or cells: baculovirus-infected Sf9 cells

PDE1B = target: T4, PDE1B (Homo sapiens, UniProt Q01064); test: PDE inhibition, PDE1B; format: biochemical
T4 construct: made in house; host or cells: Saccharomyces cerevisiae BJ2-54

PDE1C = target: T5, PDE1C (Homo sapiens, UniProt Q14123); test: PDE inhibition, PDE1C; format: biochemical
T5 construct: Plasmid Hcam3aBB contained the complete open reading frame of PDE1C3; made in house; host or cells: baculovirus-infected Sf9 cells

PDE2 = target: T6, PDE2 (Homo sapiens, UniProt O00408); test: PDE inhibition, PDE2; format: biochemical
T6 construct: made in house; host or cells: Saccharomyces cerevisiae, strain YI34

PDE3A = target: T7, PDE3A (Homo sapiens, UniProt Q14432); test: PDE inhibition, PDE3A; format: biochemical
T7 construct: Plasmid pBB-PDE3A contained the complete open reading frame of PDE3A; made in house; host or cells: baculovirus-infected Sf9 cells (washed 100,000 x g pellet, not purified)

PDE5 = target: T8, PDE5 (Homo sapiens, UniProt O76074); test: PDE inhibition, PDE5; format: biochemical
T8 construct: made in house; host or cells: Saccharomyces cerevisiae BJ2-54

PDE7 = target: T9, PDE7 (Homo sapiens, UniProt Q13946); test: PDE inhibition, PDE7; format: biochemical
T9 construct: made in house; host or cells: Saccharomyces cerevisiae BJ2-54
T9 sequence (Q13946 whole entry): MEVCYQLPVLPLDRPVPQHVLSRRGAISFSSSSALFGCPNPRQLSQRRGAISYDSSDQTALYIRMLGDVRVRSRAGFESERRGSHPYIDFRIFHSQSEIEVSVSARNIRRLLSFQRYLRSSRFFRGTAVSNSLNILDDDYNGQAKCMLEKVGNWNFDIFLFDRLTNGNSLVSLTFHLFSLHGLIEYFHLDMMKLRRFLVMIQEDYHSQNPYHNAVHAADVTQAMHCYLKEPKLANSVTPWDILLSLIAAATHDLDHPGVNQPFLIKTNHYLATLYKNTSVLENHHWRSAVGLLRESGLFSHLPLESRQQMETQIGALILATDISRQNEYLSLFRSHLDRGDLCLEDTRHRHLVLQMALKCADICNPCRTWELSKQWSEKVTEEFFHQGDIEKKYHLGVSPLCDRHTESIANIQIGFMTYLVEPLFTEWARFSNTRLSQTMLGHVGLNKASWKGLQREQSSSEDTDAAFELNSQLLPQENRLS

T1 sequence (Q07343 1-564 isoform Q07343-2): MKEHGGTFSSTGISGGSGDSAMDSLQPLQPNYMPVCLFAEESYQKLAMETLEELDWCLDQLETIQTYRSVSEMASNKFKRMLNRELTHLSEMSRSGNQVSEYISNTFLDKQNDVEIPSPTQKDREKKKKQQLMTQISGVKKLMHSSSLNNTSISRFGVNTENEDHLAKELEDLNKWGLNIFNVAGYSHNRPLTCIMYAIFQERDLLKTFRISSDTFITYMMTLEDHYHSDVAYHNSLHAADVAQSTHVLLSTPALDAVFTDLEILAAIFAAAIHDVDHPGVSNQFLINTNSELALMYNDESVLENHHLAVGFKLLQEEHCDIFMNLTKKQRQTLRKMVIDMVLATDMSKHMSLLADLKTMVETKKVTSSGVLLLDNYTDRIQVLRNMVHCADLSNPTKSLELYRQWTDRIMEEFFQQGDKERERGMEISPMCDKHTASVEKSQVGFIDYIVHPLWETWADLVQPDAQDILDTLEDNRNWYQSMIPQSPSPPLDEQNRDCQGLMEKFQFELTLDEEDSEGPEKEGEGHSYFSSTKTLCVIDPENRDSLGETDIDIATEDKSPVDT
T7 sequence (Q14432 whole entry): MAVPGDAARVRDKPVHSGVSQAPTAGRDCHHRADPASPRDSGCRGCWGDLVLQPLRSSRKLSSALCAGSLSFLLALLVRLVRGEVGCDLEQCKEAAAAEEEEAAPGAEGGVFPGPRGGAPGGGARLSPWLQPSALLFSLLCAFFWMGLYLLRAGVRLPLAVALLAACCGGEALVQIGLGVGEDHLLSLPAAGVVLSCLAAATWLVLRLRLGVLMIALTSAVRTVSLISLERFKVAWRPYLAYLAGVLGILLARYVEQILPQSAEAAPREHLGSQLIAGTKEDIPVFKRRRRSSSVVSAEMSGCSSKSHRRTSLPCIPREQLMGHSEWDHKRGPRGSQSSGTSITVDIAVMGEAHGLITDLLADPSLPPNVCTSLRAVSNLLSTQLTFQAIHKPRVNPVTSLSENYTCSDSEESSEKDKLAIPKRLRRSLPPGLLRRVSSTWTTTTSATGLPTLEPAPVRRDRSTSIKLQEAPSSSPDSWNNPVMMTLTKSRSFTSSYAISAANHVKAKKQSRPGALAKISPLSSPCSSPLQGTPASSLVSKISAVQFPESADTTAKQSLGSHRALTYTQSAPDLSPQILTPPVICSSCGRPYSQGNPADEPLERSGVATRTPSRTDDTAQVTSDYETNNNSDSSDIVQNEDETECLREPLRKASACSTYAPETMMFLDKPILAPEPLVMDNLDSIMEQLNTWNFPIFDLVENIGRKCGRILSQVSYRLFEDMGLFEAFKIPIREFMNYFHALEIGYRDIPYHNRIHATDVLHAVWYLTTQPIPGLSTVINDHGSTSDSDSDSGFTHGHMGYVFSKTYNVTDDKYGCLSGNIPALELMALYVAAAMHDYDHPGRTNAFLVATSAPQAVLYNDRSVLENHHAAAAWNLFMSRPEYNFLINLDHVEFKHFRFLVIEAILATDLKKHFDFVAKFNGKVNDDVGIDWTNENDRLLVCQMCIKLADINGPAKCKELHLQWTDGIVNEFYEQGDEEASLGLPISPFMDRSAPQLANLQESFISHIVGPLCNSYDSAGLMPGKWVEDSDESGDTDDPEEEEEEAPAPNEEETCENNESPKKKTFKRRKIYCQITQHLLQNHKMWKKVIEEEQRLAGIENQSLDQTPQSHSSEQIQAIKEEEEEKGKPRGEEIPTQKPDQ
T6 sequence (O00408 whole entry): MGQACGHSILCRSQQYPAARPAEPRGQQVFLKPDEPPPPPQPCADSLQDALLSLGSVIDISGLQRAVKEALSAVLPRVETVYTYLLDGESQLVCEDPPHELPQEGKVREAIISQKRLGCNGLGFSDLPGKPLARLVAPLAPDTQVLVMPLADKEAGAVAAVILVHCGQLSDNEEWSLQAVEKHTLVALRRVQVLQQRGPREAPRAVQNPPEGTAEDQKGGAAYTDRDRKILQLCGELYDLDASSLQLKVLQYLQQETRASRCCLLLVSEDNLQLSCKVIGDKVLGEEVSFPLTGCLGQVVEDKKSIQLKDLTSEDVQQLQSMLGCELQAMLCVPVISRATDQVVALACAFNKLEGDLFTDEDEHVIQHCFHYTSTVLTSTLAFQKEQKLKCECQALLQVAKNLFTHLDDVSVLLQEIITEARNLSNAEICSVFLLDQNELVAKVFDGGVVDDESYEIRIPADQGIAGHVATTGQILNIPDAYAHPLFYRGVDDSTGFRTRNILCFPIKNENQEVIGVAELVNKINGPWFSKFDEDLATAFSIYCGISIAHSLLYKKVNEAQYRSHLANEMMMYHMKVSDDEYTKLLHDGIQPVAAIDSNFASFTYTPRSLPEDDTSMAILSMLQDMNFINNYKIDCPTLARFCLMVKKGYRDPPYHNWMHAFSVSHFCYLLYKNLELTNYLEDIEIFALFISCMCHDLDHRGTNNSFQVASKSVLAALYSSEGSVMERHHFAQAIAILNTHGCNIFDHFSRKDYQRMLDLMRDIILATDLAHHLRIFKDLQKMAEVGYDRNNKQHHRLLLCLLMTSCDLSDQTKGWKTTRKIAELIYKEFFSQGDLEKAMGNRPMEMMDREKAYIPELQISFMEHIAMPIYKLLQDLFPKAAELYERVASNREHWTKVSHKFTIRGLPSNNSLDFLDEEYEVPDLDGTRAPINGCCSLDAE
T2 sequence (Q07343 whole entry): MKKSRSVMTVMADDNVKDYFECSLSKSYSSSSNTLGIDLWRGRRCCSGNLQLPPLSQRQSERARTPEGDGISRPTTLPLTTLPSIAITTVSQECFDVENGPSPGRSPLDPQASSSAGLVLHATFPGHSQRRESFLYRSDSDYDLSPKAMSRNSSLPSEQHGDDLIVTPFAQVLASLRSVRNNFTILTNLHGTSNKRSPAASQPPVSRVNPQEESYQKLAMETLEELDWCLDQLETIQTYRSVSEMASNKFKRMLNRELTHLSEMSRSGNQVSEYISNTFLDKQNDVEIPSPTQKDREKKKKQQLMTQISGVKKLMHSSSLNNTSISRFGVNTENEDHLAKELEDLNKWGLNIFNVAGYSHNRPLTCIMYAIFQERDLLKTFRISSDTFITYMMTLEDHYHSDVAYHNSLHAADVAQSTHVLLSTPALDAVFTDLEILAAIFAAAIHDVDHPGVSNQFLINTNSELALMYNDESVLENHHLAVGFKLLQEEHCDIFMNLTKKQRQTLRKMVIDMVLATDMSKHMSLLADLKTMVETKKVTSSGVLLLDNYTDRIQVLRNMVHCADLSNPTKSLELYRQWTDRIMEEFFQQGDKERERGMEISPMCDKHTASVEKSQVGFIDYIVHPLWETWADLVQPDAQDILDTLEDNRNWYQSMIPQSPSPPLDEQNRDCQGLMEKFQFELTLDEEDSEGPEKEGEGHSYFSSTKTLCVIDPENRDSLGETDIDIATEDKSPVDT

| Structure (SMILES) | % TNFα Inhibition (serum TNFα; 1 mg/kg i.p.) | % TNFα Inhibition (serum TNFα; 10 mg/kg i.p.) | % TNFα Inhibition (serum TNFα; 100 mg/kg i.p.) | pIC50 (human recombinant PDE4) | pEC50 [1] | pIC50 (recombinant human PDE4) | other results |
| --- | --- | --- | --- | --- | --- | --- | --- |
| COC(=O)N1C[C@@H](c2ccc(OC)c(OC3CCCC3)c2)[C@](C)(C(C)=O)C1 (relative stereo) [Comparative Example, trans-3-(3-cyclopentoxy-4-methoxyphenyl)-1-methoxycarbonyl-4-methyl-4-(methylcarbonyl)pyrrolidine, reference compound] | 43% | 100% | 100% | – | – | – | Sedative Effect (spontaneous mobility): + |
| CCOC(=O)c1cc(C)n(-c2cccc(Cl)c2Cl)c1-c1ccccc1 [Example 42, 1-(2,3-Dichlorophenyl)-5-methyl-2-phenyl-1H-pyrrole-3-carboxylic acid ethyl ester] | – | – | – | 5.83 | 4.00 | – | – |
| CCOC(=O)c1cc(-c2ccccc2)n(-c2cccc(Cl)c2)c1C [Example 3, 1-(3-Chlorophenyl)-2-methyl-5-phenyl-1H-pyrrole-3-carboxylic acid ethyl ester] | – | – | – | 6.70 | 5.82 | – | – |
| COC(=O)N1CC(c2ccc(OC)c(OC3CCCC3)c2)C(C)(C(C)=O)C1 (stereo not drawn) | – | – | – | – | – | ~8.70 | – |
| COc1ccc(C2CNC(=O)C2)cc1OC1CCCC1 (stereo not drawn) [Rolipram, reference compound] | – | – | – | – | – | ~6.70 | LPS-induced TNFα secretion from human lymphocytes ([1]; preliminary experiments): inhibit LPS-induced TNFα secretion from human lymphocytes in a dose-dependent fashion |
| CCOC(=O)c1cc(-c2ccccc2)n(-c2cccc([N+](=O)[O-])c2)c1C [Example 22, 2-Methyl-1-(3-nitrophenyl)-5-phenyl-1H-pyrrole-3-carboxylic acid ethyl ester] | 13% | 84% | 100% | 6.82 | 6.06 | – | pIC50 (human recombinant PDE4B): 6.82; pIC50 (PDE1A): 4.45; pIC50 (PDE1B): 4.68; pIC50 (PDE1C): 4.66; pIC50 (PDE2): 5.35; pIC50 (PDE3A): 4.05; pIC50 (PDE5): 4.90; pIC50 (PDE7): 4.97 |
